Test results from US20260053932A1, “COMPOUNDS AND METHODS FOR THE TARGETED DEGRADATION OF ANDROGEN RECEPTOR AND ASSOCIATED METHODS OF USE” (Arvinas Operations, Inc., priority 2020, published 2026).

These molecules were tested on androgen receptor (AR) in LNCaP and/or VCaP cells (assay: Androgen Receptor ELISA assay (AR degradation)). Settings: degradation of AR ELISA in LNCaP and/or VCaP cells; Table 2C; read-out: DC50 Code*.
Assay type: cell-based
In short: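 VCaP cells grown ≥3 days, then treated 5 h with compound in media containing 1 nM R1881 (10× stock). Cells lysed and AR quantified by sandwich ELISA (mouse AR detection Ab, HRP anti-mouse, TMB). DC50 and Dmax derived from AR degradation.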

DC50, 1 to 10 nM:
Cc1cc(O[C@H]2C(C)(C)[C@H](NC(=O)c3ccc(N4CCC(CN(C(C)C)[C@H]5C[C@H](Oc6ccc7c(c6)C(=O)N(C6CCC(=O)NC6=O)C7=O)C5)CC4)cn3)C2(C)C)cc(C)c1C#N (stereo partly shown) [compound 128, N-((1r,3r)-3-(4-cyano-3,5-dimethylphenoxy)-2,2,4,4-tetramethylcyclobutyl)-5-(4-((((1r,3r)-3-((2-(2,6-dioxopiperidin-3-yl)-1,3-dioxoisoindolin-5-yl)oxy)cyclobutyl) (isopropyl)amino)methyl)piperidin-1-yl)picolinamide]
COc1cc(O[C@H]2C(C)(C)[C@H](NC(=O)c3cnc(N4CC(CN(C(C)C)[C@H]5C[C@H](Oc6ccc7c(c6)C(=O)N(C6CCC(=O)NC6=O)C7=O)C5)C4)cn3)C2(C)C)ccc1C#N (stereo partly shown) [compound 130, N-((1r,3r)-3-(4-cyano-3-methoxyphenoxy)-2,2,4,4-tetramethylcyclobutyl)-5-(3-((((1r,3r)-3-((2-(2,6-dioxopiperidin-3-yl)-1,3-dioxoisoindolin-5-yl)oxy)cyclobutyl) (isopropyl)amino)methyl)azetidin-1-yl)pyrazine-2-carboxamide]
Cc1cc(O[C@H]2C(C)(C)[C@H](NC(=O)c3cnc(N4CC(CN(C(C)C)[C@H]5C[C@H](Oc6ccc7c(c6)C(=O)N(C6CCC(=O)NC6=O)C7=O)C5)C4)cn3)C2(C)C)cc(C)c1C#N (stereo partly shown) [compound 131, N-((1r,3r)-3-(4-cyano-3,5-dimethylphenoxy)-2,2,4,4-tetramethylcyclobutyl)-5-(3-((((1r,3r)-3-((2-(2,6-dioxopiperidin-3-yl)-1,3-dioxoisoindolin-5-yl)oxy)cyclobutyl) (isopropyl)amino)methyl)azetidin-1-yl)pyrazine-2-carboxamide]
Cc1cc(O[C@H]2C(C)(C)[C@H](NC(=O)c3ncc(N4CCC(CN(C(C)C)[C@H]5C[C@H](Oc6ccc7c(c6)C(=O)N(C6CCC(=O)NC6=O)C7=O)C5)CC4)cn3)C2(C)C)cc(C)c1C#N (stereo partly shown) [compound 132, N-((1r,3r)-3-(4-cyano-3,5-dimethylphenoxy)-2,2,4,4-tetramethylcyclobutyl)-5-(4-((((1r,3r)-3-((2-(2,6-dioxopiperidin-3-yl)-1,3-dioxoisoindolin-5-yl)oxy)cyclobutyl) (isopropyl)amino)methyl)piperidin-1-yl)pyrimidine-2-carboxamide]
Cc1cc(O[C@H]2C(C)(C)[C@H](NC(=O)c3cnc(N4CC(CCN5CCC(Oc6ccc7c(c6)C(=O)N(C6CCC(=O)NC6=O)C7=O)CC5)C4)nc3)C2(C)C)cc(C)c1C#N (stereo partly shown) [compound 133, N-((1r,3r)-3-(4-cyano-3,5-dimethylphenoxy)-2,2,4,4-tetramethylcyclobutyl)-2-(3-(2-(4-((2-(2,6-dioxopiperidin-3-yl)-1,3-dioxoisoindolin-5-yl)oxy)piperidin-1-yl)ethyl)azetidin-1-yl)pyrimidine-5-carboxamide]
CCOc1cc(O[C@H]2C(C)(C)[C@H](NC(=O)c3cnc(N4CC(CN(C(C)C)[C@H]5C[C@H](Oc6ccc7c(c6)C(=O)N(C6CCC(=O)NC6=O)C7=O)C5)C4)cn3)C2(C)C)ccc1C#N (stereo partly shown) [compound 134, N-((1r,3r)-3-(4-cyano-3-ethoxyphenoxy)-2,2,4,4-tetramethylcyclobutyl)-5-(3-((((1r,3r)-3-((2-(2,6-dioxopiperidin-3-yl)-1,3-dioxoisoindolin-5-yl)oxy)cyclobutyl) (isopropyl)amino)methyl)azetidin-1-yl)pyrazine-2-carboxamide]
COc1cc(O[C@H]2C(C)(C)[C@H](NC(=O)c3cnc(N4CCC(CN(CC(F)F)[C@H]5C[C@H](Oc6cc(OC)c7c(c6)C(=O)N(C6CCC(=O)NC6=O)C7=O)C5)CC4)cn3)C2(C)C)ccc1C#N (stereo partly shown) [compound 135, N-((1r,3r)-3-(4-cyano-3-methoxyphenoxy)-2,2,4,4-tetramethylcyclobutyl)-5-(4-(((2,2-difluoroethyl)((1r,3r)-3-((2-(2,6-dioxopiperidin-3-yl)-7-methoxy-1,3-dioxoisoindolin-5-yl)oxy)cyclobutyl)amino)methyl)piperidin-1-yl)pyrazine-2-carboxamide]
